The record followed here is patent EP4768484A1, “HETEROCYCLIC FUSED RING COMPOUND, AND COMPOSITION AND USE THEREOF” (Shenzhen TargetRx, Inc., priority 2023, dated 2025).

Format in all cases: cell-based
One assay has as its system K562 cells. The experiment in a line: Cell growth inhibitory activity assay (CellTiter-Glo), K562 cells. As to conditions: Homo sapiens, 72 h, CTG cell viability. The method, boiled down:
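K562 cells in logarithmic growth were counted, diluted and plated in 96-well plates, with medium-only blanks and a separate T0 plate read by CTG the following day. After overnight incubation, graded compound concentrations were added for 72 h, with 0.5% DMSO wells as growth controls. Luminescence was read on a Biotek cytation3.0, and IC50 came from nonlinear fitting in GraphPad Prism 7.0.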
A general note: Cellular ATP, detected with luciferase, serves as a proxy for viable cell number.

A further assay concerns the target T1, Ba/F3 BCR-ABL1 WT (Homo sapiens, UniProt P00519+P11274).
T1 construct: BCR (N-terminal fusion partner of the oncoprotein); expressed in transfected cells; host or cells: Ba/F3 (lentiviral transduction, monoclonal line)
Nature of the assay: Cell growth inhibitory activity assay (CellTiter-Glo), Ba/F3 BCR-ABL1 WT cells. The following applies: 72 h, CTG cell viability. The essentials: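 Ba/F3 lines stably transduced by lentivirus with WT or mutant BCR-ABL1, alongside untransduced parental Ba/F3, were seeded and incubated overnight at 37 °C, 5% CO2, then exposed to serially diluted compound for 72 h. Viability was read as ATP by CellTiter-Glo luminescence against a day-of-dosing T0 plate; IC50 from four-parameter nonlinear fit.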

For a further assay, the target named is T2, Ba/F3 BCR-ABL1 T315I (Homo sapiens, UniProt P00519+P11274, T315I).
T2 construct: BCR (N-terminal fusion partner of the oncoprotein); expressed in transfected cells; host or cells: Ba/F3 (lentiviral transduction, monoclonal line)
Nature of the assay: Cell growth inhibitory activity assay (CellTiter-Glo), Ba/F3 BCR-ABL1 T315I cells. The following applies: 72 h, CTG cell viability. The method, boiled down: (§1)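 IC50 values come from nonlinear fitting of % inhibition against log concentration, with viability taken as ATP content by CellTiter-Glo. Parental Ba/F3 or Ba/F3 monoclonal lines expressing lentivirally introduced mutant BCR-ABL1 were dosed for 72 h; controls included 0.5% DMSO wells and a T0 plate.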

Another assay concerns Ba/F3 parental cells. Nature of the assay: Cell growth inhibitory activity assay (CellTiter-Glo), Ba/F3 parental cells. The following applies: Mus musculus, BaF3, 72 h, CTG cell viability, read-out: IC50 Ba/F3 BCR-ABL1 Parental. The essentials: as §1

In the case of `C[C@@H]1COCc2nc3cc(C(=O)Nc4ccc(OC(F)(F)Cl)cc4)cc(-c4ccc5c(c4)-c4n[nH]cc4C5)c3n21` [T-108, (R)-N-(4-(chlorodifluoromethoxy)phenyl)-6-(2,4-dihydroindeno[1,2-c]pyrazol-7-yl)-4-methyl-3,4-dihydro-1H-benzo[4,5]imidazo[2,1-c][1,4]xxazine-8-carboxamide], the IC50 is not above 5 nM with K562 cells, not above 5 nM on Ba/F3 BCR-ABL1 WT, more than 1000 nM on Ba/F3 BCR-ABL1 T315I and more than 1000 nM in the assay on Ba/F3 parental cells.
With `C[C@@H]1COCc2nc3cc(C(=O)Nc4ccc(OC(F)(F)Cl)cc4)cc(-c4ccc5c(c4)-c4nn(-c6ncccn6)cc4C5)c3n21` [T-109], the IC50 in the assay with K562 cells is not above 5 nM; against Ba/F3 BCR-ABL1 WT, not above 5 nM; at Ba/F3 BCR-ABL1 T315I, not above 5 nM; with Ba/F3 parental cells, more than 1000 nM.
As to `CC(C)n1cc2c(n1)-c1cc(-c3cc(C(=O)Nc4ccc(OC(F)(F)Cl)cc4)cc4nc5n(c34)[C@H](C)COC5)ccc1C2` [T-110, (R)-N-(4-(chlorodifluoromethoxy)phenyl)-6-(2-isopropyl-2,4-dihydroindeno[1,2-c]pyrazol-7-yl)-4-methyl-3,4-dihydro-1H-benzo[4,5]imidazo[2,1-c][1,4]oxazine-8-carboxamide], the IC50 with K562 cells is not above 5 nM; against Ba/F3 BCR-ABL1 WT, not above 5 nM; at Ba/F3 BCR-ABL1 T315I, 5 to 50 nM; in the assay with Ba/F3 parental cells, more than 1000 nM.
For `C[C@@H]1COCc2nc3cc(C(=O)Nc4ccc(OC(F)(F)Cl)cc4)cc(-c4ccc5c(c4)-c4nc(N)sc4C5)c3n21` [T-111, (R)-6-(2-amino-8H-indeno[1,2-d]thiazol-5-yl)-N-(4-(chlorodifluoromethoxy)phenyl)-4-methyl-3,4-dihydro-1H-benzo[4,5]imidazo[2,1-c][1,4]oxazine-8-carboxamide], the IC50 was not above 5 nM in the assay on K562 cells, not above 5 nM on Ba/F3 BCR-ABL1 WT, 5 to 50 nM on Ba/F3 BCR-ABL1 T315I and more than 1000 nM in the assay with Ba/F3 parental cells.
`CC(=O)Nc1nc2c(s1)Cc1ccc(-c3cc(C(=O)Nc4ccc(OC(F)(F)Cl)cc4)cc4nc5n(c34)[C@H](C)COC5)cc1-2` [T-112, (R)-6-(2-acetamido-8H-indeno[1,2-d]thiazol-5-yl)-N-(4-(chlorodifluoromethoxy)phenyl)-4-methyl-3,4-dihydro-1H-benzo[4,5]imidazo[2,1-c][1,4]oxazine-8-carboxamide]: the IC50 with K562 cells is not above 5 nM; against Ba/F3 BCR-ABL1 WT, not above 5 nM; on Ba/F3 BCR-ABL1 T315I, 5 to 50 nM; in the assay with Ba/F3 parental cells it was more than 1000 nM.
With `C[C@@H]1COCc2nc3cc(C(=O)Nc4ccc(OC(F)(F)Cl)cc4)cc(-c4ccc5c(c4)-c4ncsc4C5)c3n21` [T-113, (R)-N-(4-(chlorodifluoromethoxy)phenyl)-6-(8H-indeno[1,2-d]thiazol-5-yl)-4-methyl-3,4-dihydro-1H-benzo[4,5]imidazo[2,1-c][1,4]oxazine-8-carboxamide], the IC50 in the assay with K562 cells was not above 5 nM; on Ba/F3 BCR-ABL1 WT, not above 5 nM; against Ba/F3 BCR-ABL1 T315I, 5 to 50 nM; in the assay on Ba/F3 parental cells, more than 1000 nM.
Turning to `C[C@@H]1CCSc2nc3cc(C(=O)Nc4ccc(OC(F)(F)Cl)cc4)cc(-c4cnccn4)c3n21` [T-116, (R)-N-(4-(chlorodifluoromethoxy)phenyl)-4-methyl-6-(pyrazin-2-yl)-3,4-dihydro-2H-benzo[4,5]imidazo[2,1-c][1,3]thiazine-8-carboxamide], the IC50 with K562 cells is not above 5 nM; against Ba/F3 BCR-ABL1 WT it was not above 5 nM; at Ba/F3 BCR-ABL1 T315I, 5 to 50 nM; in the assay with Ba/F3 parental cells it was more than 1000 nM.
Regarding `CC(C)n1cnc2cc(C(=O)Nc3ccc(OC(F)(F)Cl)cc3)cc(-c3cnc4c(c3)-c3n[nH]cc3C4)c21` [T-119, N-(4-(chlorodifluoromethoxy)phenyl)-7-(2,4-dihvdropyrazolo[3',4':3,4]cyclopenta[1,2-b]pyridin-7-yl)-1-isopropyl-1H-benzo[d]imidazole-5-carboxamide], the IC50 in the assay with K562 cells was not above 5 nM; against Ba/F3 BCR-ABL1 WT, not above 5 nM; on Ba/F3 BCR-ABL1 T315I, 5 to 50 nM; with Ba/F3 parental cells, more than 1000 nM.
For `CC(C)n1cnc2cc(C(=O)Nc3ccc(OC(F)(F)Cl)cc3)cc(-c3cnc4c(c3)-c3nn(-c5ncccn5)cc3C4)c21` [T-120, N-(4-(chlorodifluoromethoxy)phenyl)-1-isopropyl-7-(2-(pyrimidin-2-yl)-2,4-dihydropyrazolo[3',4':3,4]cyclopenta[1,2-b]pyridin-7-yl)-1H-benzo[d]imidazole-5-carboxamide], the IC50 was not above 5 nM in the assay on K562 cells, not above 5 nM against Ba/F3 BCR-ABL1 WT, not above 5 nM on Ba/F3 BCR-ABL1 T315I and more than 1000 nM with Ba/F3 parental cells.
`CC(C)n1cnc2cc(C(=O)Nc3ccc(OC(F)(F)Cl)cc3)cc(-c3cnc4c(c3)-c3nn(-c5ncc(F)cn5)cc3C4)c21` [T-121, N-(4-(chlorodifluoromethoxy)phenyl)-7-(2-(5-fluoropyrimidin-2-yl)-2,4-dihydropyrazolo[3',4':3,4]cyclopenta[1,2-b]pyridin-7-yl)-1-isopropyl-1H-benzo[d]imidazole-5-carboxamide]: the IC50 was not above 5 nM in the assay with K562 cells, not above 5 nM on Ba/F3 BCR-ABL1 WT, not above 5 nM against Ba/F3 BCR-ABL1 T315I and more than 1000 nM in the assay on Ba/F3 parental cells.
For the molecule `CC1(C)C(=O)Nc2cc(C(=O)Nc3ccc(OC(F)(F)Cl)cc3)cc(-c3cnc4c(c3)-c3n[nH]cc3C4)c21` [T-122, N-(4-(chlorodifluoromethoxy)phenyl)-4-(2,4-dihydropyrazolo[3',4':3,4]cyclopenta[1,2-b]pyridin-7-yl)-3,3-dimethyl-2-oxoindoline-6-carboxamide], the IC50 in the assay with K562 cells was not above 5 nM; against Ba/F3 BCR-ABL1 WT, not above 5 nM; at Ba/F3 BCR-ABL1 T315I it was 5 to 50 nM; in the assay on Ba/F3 parental cells, more than 1000 nM.
For the molecule `CC1(C)C(=O)Nc2cc(C(=O)Nc3ccc(OC(F)(F)Cl)cc3)cc(-c3cnc4c(c3)-c3nn(-c5ncccn5)cc3C4)c21` [T-123, N-(4-(chlorodifluoromethoxy)phenyl)-3,3-dimethyl-2-oxo-4-(2-(pyrimidin-2-yl)-2,4-dihydropyrazolo[3',4':3,4]cyclopenta[1,2-b]pyridin-7-yl)indoline-6-carboxamide], the IC50 with K562 cells is not above 5 nM; on Ba/F3 BCR-ABL1 WT, not above 5 nM; against Ba/F3 BCR-ABL1 T315I it was not above 5 nM; with Ba/F3 parental cells, more than 1000 nM.
For the molecule `CC1(C)C(=O)Nc2cc(C(=O)Nc3ccc(OC(F)(F)Cl)cc3)cc(-c3cnc4c(c3)-c3nn(-c5ncc(F)cn5)cc3C4)c21` [T-124, N-(4-(chlorodifluoromethoxy)phenyl)-4-(2-(5-fluoropyrimidin-2-yl)-2,4-dihydropyrazolo[3',4':3,4]cyclopenta[1,2-b]pyridin-7-yl)-3,3-dimethyl-2-oxoindoline-6-carboxamide], the IC50 with K562 cells was not above 5 nM; against Ba/F3 BCR-ABL1 WT, not above 5 nM; against Ba/F3 BCR-ABL1 T315I, not above 5 nM; with Ba/F3 parental cells, more than 1000 nM.
On to `O=C(Nc1ccc(OC(F)(F)Cl)cc1)c1cc2c(c(-c3cnc4c(c3)-c3n[nH]cc3C4)c1)C1(CCCCC1)C(=O)N2` [T-125, N-(4-(chlorodifluoromethoxy)phenyl)-4'-(2,4-dihydropyrazolo[3',4':3,4]cyclopenta[1,2-b]pyridin-7-yl)-2'-oxospiro[cyclohexane-1,3'-indoline]-6'-carboxamide], for which the IC50 with K562 cells was not above 5 nM; at Ba/F3 BCR-ABL1 WT it was not above 5 nM; at Ba/F3 BCR-ABL1 T315I, 5 to 50 nM; in the assay with Ba/F3 parental cells, more than 1000 nM.
Regarding `O=C(Nc1ccc(OC(F)(F)Cl)cc1)c1cc2c(c(-c3cnc4c(c3)-c3nn(-c5ncccn5)cc3C4)c1)C1(CCCCC1)C(=O)N2` [T-126, N-(4-(chlorodifluoromethoxy)phenyl)-4'-(2-(pyrimidin-2-yl)-2,4-dihydropyrazolo[3',4':3,4]cyclopenta[1,2-b]pyridin-7-yl)-2'-oxospiro[cyclohexane-1,3'-indoline]-6'-carboxamide], the IC50 is not above 5 nM in the assay with K562 cells, not above 5 nM against Ba/F3 BCR-ABL1 WT, not above 5 nM against Ba/F3 BCR-ABL1 T315I and more than 1000 nM in the assay on Ba/F3 parental cells.
Regarding `O=C(Nc1ccc(OC(F)(F)Cl)cc1)c1cc2c(c(-c3cnc4c(c3)-c3nn(-c5ncc(F)cn5)cc3C4)c1)C1(CCCCC1)C(=O)N2` [T-127, N-(4-(chlorodifluoromethoxy)phenyl)-4'-(2-(5-fluoropyrimidin-2-yl)-2,4-dihydropyrazolo[3',4':3,4]cyclopenta[1,2-b]pyridin-7-vl)-2'-oxospiro[cyclohexane-1,3'-indoline]-6'-carboxamide], the IC50 is not above 5 nM in the assay on K562 cells, not above 5 nM against Ba/F3 BCR-ABL1 WT, not above 5 nM against Ba/F3 BCR-ABL1 T315I and more than 1000 nM in the assay with Ba/F3 parental cells.
`N#Cc1cnc(-n2cc3c(n2)-c2cc(-c4cc(C(=O)Nc5ccc(OC(F)(F)Cl)cc5)cnc4N4CC[C@@H](F)C4)cnc2C3)nc1` [T-128, (R)-N-(4-(chlorodifluoromethoxy)phenyl)-5-(2-(5-cyanopyrimidin-2-yl)-2,4-dihydropyrazolo[3',4':3,4]cyclopenta[1,2-b]pyridin-7-yl)-6-(3-fluoropyrrolidin-1-yl)nicotinamide]: the IC50 with K562 cells was not above 5 nM; against Ba/F3 BCR-ABL1 WT, not above 5 nM; against Ba/F3 BCR-ABL1 T315I it was not above 5 nM; in the assay with Ba/F3 parental cells it was more than 1000 nM.
As to `N#Cc1ccnc(-n2cc3c(n2)-c2cc(-c4cc(C(=O)Nc5ccc(OC(F)(F)Cl)cc5)cnc4N4CC[C@@H](F)C4)cnc2C3)n1` [T-129, (R)-N-(4-(chlorodifluoromethoxy)phenyl)-5-(2-(4-cyanopyrimidin-2-yl)-2,4-dihydropyrazolo[3',4':3,4]cyclopenta[1,2-b]pyridin-7-yl)-6-(3-fluoropyrrolidin-1-yl)nicotinamide], the IC50 with K562 cells is not above 5 nM; against Ba/F3 BCR-ABL1 WT, not above 5 nM; against Ba/F3 BCR-ABL1 T315I, not above 5 nM; in the assay with Ba/F3 parental cells it was more than 1000 nM.
